Test system: GnRHR-expressing LβT2 gonadotrope cell line
Assay: SYBR green real-time PCR of transcripts regulated by GnRH in LβT2 cells
Type: cell-based, mouse
Details: 1 hour
Experimental: Cell Culture and Sample Preparation: LβT2 cells were obtained and maintained at 37° C. in 5% CO2 in humidified air in DMEM (Mediatech) containing 10% fetal bovine serum (Gemini). For experiments. 40-50×10^6 cells were seeded in 15 cm dishes. The medium was replaced 21 hours later with DMEM containing 25 mM HEPES (Mediatech) and glutamine. 18 hours later, the cells were treated with 100 nM GnRH or vehicle and were returned to the CO2 incubator for 1 hour. The incubation was stopped by aspirating the incubation medium and adding 10 ml of lysis buffer (4M guanidinium thiocyanate, 25 mM sodium citrate, pH 7.0, 0.5% N-lauroyl-sarcosine, and 0.1 M 2-mercaptoethanol). Total RNA was isolated according to the method of Chomczynski and Sacchi (1987) supra. Approximately 400 μg total RNA was obtained from each plate.
Real Time PCR. The protocol of Example 1 above, was used. Briefly, […] total RNA was converted into cDNA and […] (approximately 500 pg) was utilized for 40 cycle three-step PCR in an ABI Prism 7700 with 20 mM Tris pH 8.4, 50 mM KCL, 3 mM MgCl2, 200 μM dNTPs, 0.5×SYBR® green (Molecular Probes), […] primer and 0.5 U Platinum Taq (Life Technologies). Amplicon size and reaction specificity was confirmed by agarose gel electrophoresis. The number of target copies in each sample was interpolated from its detection threshold (CT) value using a plasmid or purified PCR product standard curve included on each plate. The sequence of the 60 primer sets utilized can be found in supplementary material. Each transcript in each sample was assayed 5 times and the median CT values were used for analysis.
Confirmation of Gene Regulation by Real-Time PCR. The measurement accuracy of the microarray and the biological variability of the transcriptional program identified was evaluated through a validation study comprising real time PCR assays of 60 transcripts, including 26 genes that met the threshold for regulation in the microarray assay. To generate accurate and precise reference measurements of these genes, 5 measurements were made of each gene in each RNA sample and the measurements were calibrated with a standard curve included on each PCR plate (FIG. 4). Nine experimental pairs of vehicle and GnRH-treated cultures were tested, including the microarray assayed samples. 100% (17 of 17) of the gene changes showing >1.6-fold change on the microarray and 66% (6 of 9) of gene changes showing between 1.3 and 1.6-fold changes were confirmed by PCR. […] Because the threshold was set at a 1.3-fold change, these genes are considered to be not confirmed (see discussion below).

[1] = 100 nM GnRH vs vehicle, LβT2 cells
[2] = gene did not meet the criteria on the microarray, 100 nM GnRH

Substance: gonadotropin releasing hormone [GnRH]
- 1κB fold-change, SYBR PCR (n = 9) [1]: 2.6 ± 0.2 fold
- Egr1 fold-change, SYBR PCR (n = 9) [1]: 390.6 ± 83.9 fold
- Egr2 fold-change, SYBR PCR (n = 9) [1]: 294.7 ± 35.6 fold
- Gem fold-change, SYBR PCR (n = 9) [1]: 4.3 ± 0.3 fold
- HSP30 fold-change, SYBR PCR (n = 9) [1]: 1.9 ± 0.2 fold
- Klf4 fold-change, SYBR PCR (n = 9) [1]: 2.9 ± 0.3 fold
- Klf-like EST fold-change, SYBR PCR (n = 9) [1]: 2.5 ± 0.2 fold
- LRG21 fold-change, SYBR PCR (n = 9) [1]: 96.8 ± 15.7 fold
- MKP1/3CH134 fold-change, SYBR PCR (n = 9) [1]: 3.4 ± 0.4 fold
- NMDMC fold-change, SYBR PCR (n = 9) [1]: 1.6 ± 0.3 fold
- Nr4a1/nur77 fold-change, SYBR PCR (n = 9) [1]: 49.4 ± 10.1 fold
- Nrf2 fold-change, SYBR PCR (n = 9) [1]: 1.5 ± 0.1 fold
- PRL1 fold-change, SYBR PCR (n = 9) [1]: 2.1 ± 0.1 fold
- Period1 fold-change, SYBR PCR (n = 9) [1]: 4.9 ± 1.1 fold
- Rgs2 fold-change, SYBR PCR (n = 9) [1]: 8.7 ± 0.4 fold
- TSC22 fold-change, SYBR PCR (n = 9) [1]: 3.3 ± 0.2 fold
- c-fos fold-change, SYBR PCR (n = 9) [1]: 52.0 ± 5.8 fold
- c-jun fold-change, SYBR PCR (n = 9) [1]: 6.6 ± 0.9 fold
- gly96 fold-change, SYBR PCR (n = 9) [1]: 3.8 ± 0.5 fold
- ler2/Pip92 fold-change, SYBR PCR (n = 9) [1]: 17.1 ± 2.4 fold
- transgelin fold-change, SYBR PCR (n = 9) [1]: 1.8 ± 0.2 fold
- β-actin fold-change, SYBR PCR (n = 9) [1]: 1.6 ± 0.1 fold
- γ-actin fold-change, SYBR PCR (n = 9) [1]: 3.9 ± 0.4 fold
- SCL regulation by real-time PCR [2]: 2.4 fold
- STY kinase regulation by real-time PCR [2]: 1.7 fold
- glucose transport protein regulation by real-time PCR [2]: 2.2 fold

Source: patent US7723023B2, “Use of intrinsic reporters of cell signaling for high content drug profiling and toxicity screening” (Mount Sinai School of Medicine, priority 2001, dated 2010)
